Reference: ChEMBL document CHEMBL5724806, “Unraveling interindividual differences and functional consequences of gut microbial metabolism of immunosuppressants” (2024)

Tests used:
Type in all cases: ADME
[1] = The drug is tested on Collinsella aerofaciens strain: DSM3979 for biotransformation under anaerobic condition. The drug concentrations were measured over 6 timepoints collected between 0 and 12 hours of incubation by liquid-chromatography-coupled mass spectrometry (LC–MS); parameters: dose 5 uM, timepoint 0, 1.5, 3, 6, 9, 12 hours; conditions: 5 µM
[2] = The drug is tested on Capnocytophaga ochracea strain: DSM7271 for biotransformation under anaerobic condition. The drug concentrations were measured over 6 timepoints collected between 0 and 12 hours of incubation by liquid-chromatography-coupled mass spectrometry (LC–MS); parameters: dose 5 uM, timepoint 0, 1.5, 3, 6, 9, 12 hours; conditions: 5 µM
[3] = The drug is tested on Odoribacter splanchnicus strain: DSM20712 for biotransformation under anaerobic condition. The drug concentrations were measured over 6 timepoints collected between 0 and 12 hours of incubation by liquid-chromatography-coupled mass spectrometry (LC–MS); parameters: dose 5 uM, timepoint 0, 1.5, 3, 6, 9, 12 hours; conditions: 5 µM
[4] = The drug is tested on Parabacteroides merdae strain: DSM19495 for biotransformation under anaerobic condition. The drug concentrations were measured over 6 timepoints collected between 0 and 12 hours of incubation by liquid-chromatography-coupled mass spectrometry (LC–MS); parameters: dose 5 uM, timepoint 0, 1.5, 3, 6, 9, 12 hours; conditions: 5 µM
[5] = The drug is tested on Prevotella copri strain: DSM18205 for biotransformation under anaerobic condition. The drug concentrations were measured over 6 timepoints collected between 0 and 12 hours of incubation by liquid-chromatography-coupled mass spectrometry (LC–MS); parameters: dose 5 uM, timepoint 0, 1.5, 3, 6, 9, 12 hours; conditions: segatella copri, 5 µM
[6] = The drug is tested on Eubacterium rectale strain: DSM17629 for biotransformation under anaerobic condition. The drug concentrations were measured over 6 timepoints collected between 0 and 12 hours of incubation by liquid-chromatography-coupled mass spectrometry (LC–MS); parameters: dose 5 uM, timepoint 0, 1.5, 3, 6, 9, 12 hours; conditions: agathobacter rectalis, 5 µM
[7] = The drug is tested on Lactobacillus paracasei strain: ATCC27092 for biotransformation under anaerobic condition. The drug concentrations were measured over 6 timepoints collected between 0 and 12 hours of incubation by liquid-chromatography-coupled mass spectrometry (LC–MS); parameters: dose 5 uM, timepoint 0, 1.5, 3, 6, 9, 12 hours; conditions: lacticaseibacillus paracasei, 5 µM
[8] = The drug is tested on Ruminococcus gnavus strain: ATCC29149 for biotransformation under anaerobic condition. The drug concentrations were measured over 6 timepoints collected between 0 and 12 hours of incubation by liquid-chromatography-coupled mass spectrometry (LC–MS); parameters: dose 5 uM, timepoint 0, 1.5, 3, 6, 9, 12 hours; conditions: mediterraneibacter gnavus, 5 µM
[9] = The drug is tested on Streptococcus anginosus strain: DSM20563 for biotransformation under anaerobic condition. The drug concentrations were measured over 6 timepoints collected between 0 and 12 hours of incubation by liquid-chromatography-coupled mass spectrometry (LC–MS); parameters: dose 5 uM, timepoint 0, 1.5, 3, 6, 9, 12 hours; conditions: 5 µM
[10] = The drug is tested on Streptococcus sanguinis strain: DSM20567 for biotransformation under anaerobic condition. The drug concentrations were measured over 6 timepoints collected between 0 and 12 hours of incubation by liquid-chromatography-coupled mass spectrometry (LC–MS); parameters: dose 5 uM, timepoint 0, 1.5, 3, 6, 9, 12 hours; conditions: 5 µM
[11] = The drug is tested on Actinomyces graevenitzii strain: DSM15540 for biotransformation under microaerobic condition. The drug concentrations were measured over 6 timepoints collected between 0 and 12 hours of incubation by liquid-chromatography-coupled mass spectrometry (LC–MS); parameters: dose 5 uM, timepoint 0, 1.5, 3, 6, 9, 12 hours; conditions: 5 µM
[12] = The drug is tested on Lactobacillus gasseri strain: DSM20243 for biotransformation under microaerobic condition. The drug concentrations were measured over 6 timepoints collected between 0 and 12 hours of incubation by liquid-chromatography-coupled mass spectrometry (LC–MS); parameters: dose 5 uM, timepoint 0, 1.5, 3, 6, 9, 12 hours; conditions: 5 µM
[13] = The drug is tested on Lactobacillus reuteri strain: DSM20016 for biotransformation under microaerobic condition. The drug concentrations were measured over 6 timepoints collected between 0 and 12 hours of incubation by liquid-chromatography-coupled mass spectrometry (LC–MS); parameters: dose 5 uM, timepoint 0, 1.5, 3, 6, 9, 12 hours; conditions: limosilactobacillus reuteri, 5 µM
[14] = The drug is tested on Streptococcus salivarius strain: DSM20560 for biotransformation under microaerobic condition. The drug concentrations were measured over 6 timepoints collected between 0 and 12 hours of incubation by liquid-chromatography-coupled mass spectrometry (LC–MS); parameters: dose 5 uM, timepoint 0, 1.5, 3, 6, 9, 12 hours; conditions: 5 µM
[15] = The drug is tested on Streptococcus sanguinis strain: DSM20567 for biotransformation under microaerobic condition. The drug concentrations were measured over 6 timepoints collected between 0 and 12 hours of incubation by liquid-chromatography-coupled mass spectrometry (LC–MS); parameters: dose 5 uM, timepoint 0, 1.5, 3, 6, 9, 12 hours; conditions: 5 µM
[16] = The drug is tested on the gut metagenome community of A-04 with ENA study accession number: PRJEB31790 for biotransformation under anaerobic condition. The drug concentrations were measured over 7 timepoints collected between 0 and 12 hours of incubation by liquid-chromatography-coupled mass spectrometry (LC–MS); parameters: dose 5 uM, timepoint 0, 0.75, 1.5, 3, 6, 9, 12 hours; conditions: 5 µM
[17] = The drug is tested on the gut metagenome community of A-06 with ENA study accession number: PRJEB31790 for biotransformation under anaerobic condition. The drug concentrations were measured over 7 timepoints collected between 0 and 12 hours of incubation by liquid-chromatography-coupled mass spectrometry (LC–MS); parameters: dose 5 uM, timepoint 0, 0.75, 1.5, 3, 6, 9, 12 hours; conditions: 5 µM
[18] = The drug is tested on the gut metagenome community of P-01 with ENA study accession number: PRJEB31790 for biotransformation under anaerobic condition. The drug concentrations were measured over 7 timepoints collected between 0 and 12 hours of incubation by liquid-chromatography-coupled mass spectrometry (LC–MS); parameters: dose 5 uM, timepoint 0, 0.75, 1.5, 3, 6, 9, 12 hours; conditions: 5 µM
[19] = The drug is tested on the gut metagenome community of P-03 with ENA study accession number: PRJEB31790 for biotransformation under anaerobic condition. The drug concentrations were measured over 7 timepoints collected between 0 and 12 hours of incubation by liquid-chromatography-coupled mass spectrometry (LC–MS); parameters: dose 5 uM, timepoint 0, 0.75, 1.5, 3, 6, 9, 12 hours; conditions: 5 µM
[20] = The drug is tested on the gut metagenome community of T-02 with ENA study accession number: PRJEB31790 for biotransformation under anaerobic condition. The drug concentrations were measured over 7 timepoints collected between 0 and 12 hours of incubation by liquid-chromatography-coupled mass spectrometry (LC–MS); parameters: dose 5 uM, timepoint 0, 0.75, 1.5, 3, 6, 9, 12 hours; conditions: 5 µM
[21] = The drug is tested on the gut metagenome community of T-03 with ENA study accession number: PRJEB31790 for biotransformation under anaerobic condition. The drug concentrations were measured over 7 timepoints collected between 0 and 12 hours of incubation by liquid-chromatography-coupled mass spectrometry (LC–MS); parameters: dose 5 uM, timepoint 0, 0.75, 1.5, 3, 6, 9, 12 hours; conditions: 5 µM
[22] = The drug is tested on the gut metagenome community of T-04 with ENA study accession number: PRJEB31790 for biotransformation under anaerobic condition. The drug concentrations were measured over 7 timepoints collected between 0 and 12 hours of incubation by liquid-chromatography-coupled mass spectrometry (LC–MS); parameters: dose 5 uM, timepoint 0, 0.75, 1.5, 3, 6, 9, 12 hours; conditions: 5 µM
[23] = The drug is tested on the gut metagenome community of A-01 with ENA study accession number: PRJEB31790 for biotransformation under microaerobic condition. The drug concentrations were measured over 7 timepoints collected between 0 and 12 hours of incubation by liquid-chromatography-coupled mass spectrometry (LC–MS); parameters: dose 5 uM, timepoint 0, 0.75, 1.5, 3, 6, 9, 12 hours; conditions: 5 µM
[24] = The drug is tested on the gut metagenome community of A-10 with ENA study accession number: PRJEB31790 for biotransformation under microaerobic condition. The drug concentrations were measured over 7 timepoints collected between 0 and 12 hours of incubation by liquid-chromatography-coupled mass spectrometry (LC–MS); parameters: dose 5 uM, timepoint 0, 0.75, 1.5, 3, 6, 9, 12 hours; conditions: 5 µM
[25] = The drug is tested on the gut metagenome community of T-02 with ENA study accession number: PRJEB31790 for biotransformation under microaerobic condition. The drug concentrations were measured over 7 timepoints collected between 0 and 12 hours of incubation by liquid-chromatography-coupled mass spectrometry (LC–MS); parameters: dose 5 uM, timepoint 0, 0.75, 1.5, 3, 6, 9, 12 hours; conditions: 5 µM

COc1c(C)c2c(c(O)c1C/C=C(\C)CCC(=O)O)C(=O)OC2 [MYCOPHENOLIC ACID]
Bacterial Biotransformation [1]: Compound NOT metabolized
Bacterial Biotransformation [2]: Compound NOT metabolized
Bacterial Biotransformation [3]: Compound NOT metabolized
Bacterial Biotransformation [4]: Compound NOT metabolized
Bacterial Biotransformation [5]: Compound NOT metabolized
Bacterial Biotransformation [6]: Compound NOT metabolized
Bacterial Biotransformation [7]: Compound NOT metabolized
Bacterial Biotransformation [8]: Compound NOT metabolized
Bacterial Biotransformation [9]: Compound NOT metabolized
Bacterial Biotransformation [10]: Compound NOT metabolized
Bacterial Biotransformation [11]: Compound NOT metabolized
Bacterial Biotransformation [12]: Compound NOT metabolized
Bacterial Biotransformation [13]: Compound NOT metabolized
Bacterial Biotransformation [14]: Compound NOT metabolized
Bacterial Biotransformation [15]: Compound NOT metabolized
Bacterial Biotransformation [16]: Compound NOT metabolized
Bacterial Biotransformation [17]: Compound NOT metabolized
Bacterial Biotransformation [18]: Compound NOT metabolized
Bacterial Biotransformation [19]: Compound NOT metabolized
Bacterial Biotransformation [20]: Compound NOT metabolized
Bacterial Biotransformation [21]: Compound NOT metabolized
Bacterial Biotransformation [22]: Compound NOT metabolized
Bacterial Biotransformation [23]: Compound NOT metabolized
Bacterial Biotransformation [24]: Compound NOT metabolized
Bacterial Biotransformation [25]: Compound NOT metabolized

C[C@]12C=CC(=O)C=C1CC[C@@H]1[C@@H]2[C@@H](O)C[C@@]2(C)[C@H]1CC[C@]2(O)C(=O)CO [PREDNISOLONE]
Bacterial Biotransformation [1]: Compound NOT metabolized
Bacterial Biotransformation [2]: Compound NOT metabolized
Bacterial Biotransformation [3]: Compound NOT metabolized
Bacterial Biotransformation [4]: Compound NOT metabolized
Bacterial Biotransformation [5]: Compound NOT metabolized
Bacterial Biotransformation [6]: Compound NOT metabolized
Bacterial Biotransformation [7]: Compound NOT metabolized
Bacterial Biotransformation [8]: Compound metabolized
Bacterial Biotransformation [9]: Compound NOT metabolized
Bacterial Biotransformation [10]: Compound NOT metabolized
Bacterial Biotransformation [11]: Compound NOT metabolized
Bacterial Biotransformation [12]: Compound NOT metabolized
Bacterial Biotransformation [13]: Compound NOT metabolized
Bacterial Biotransformation [14]: Compound NOT metabolized
Bacterial Biotransformation [15]: Compound NOT metabolized
Bacterial Biotransformation [16]: Compound metabolized
Bacterial Biotransformation [17]: Compound metabolized
Bacterial Biotransformation [18]: Compound metabolized
Bacterial Biotransformation [19]: Compound metabolized
Bacterial Biotransformation [20]: Compound metabolized
Bacterial Biotransformation [21]: Compound NOT metabolized
Bacterial Biotransformation [22]: Compound NOT metabolized
Bacterial Biotransformation [23]: Compound metabolized
Bacterial Biotransformation [24]: Compound metabolized
Bacterial Biotransformation [25]: Compound metabolized

C[C@]12C=CC(=O)C=C1CC[C@@H]1[C@@H]2C(=O)C[C@@]2(C)[C@H]1CC[C@]2(O)C(=O)CO [PREDNISONE]
Bacterial Biotransformation [1]: Compound NOT metabolized
Bacterial Biotransformation [2]: Compound NOT metabolized
Bacterial Biotransformation [3]: Compound NOT metabolized
Bacterial Biotransformation [4]: Compound NOT metabolized
Bacterial Biotransformation [5]: Compound NOT metabolized
Bacterial Biotransformation [6]: Compound NOT metabolized
Bacterial Biotransformation [7]: Compound NOT metabolized
Bacterial Biotransformation [8]: Compound metabolized
Bacterial Biotransformation [9]: Compound NOT metabolized
Bacterial Biotransformation [10]: Compound NOT metabolized
Bacterial Biotransformation [11]: Compound NOT metabolized
Bacterial Biotransformation [12]: Compound NOT metabolized
Bacterial Biotransformation [13]: Compound NOT metabolized
Bacterial Biotransformation [14]: Compound NOT metabolized
Bacterial Biotransformation [15]: Compound NOT metabolized
Bacterial Biotransformation [16]: Compound metabolized
Bacterial Biotransformation [17]: Compound metabolized
Bacterial Biotransformation [18]: Compound metabolized
Bacterial Biotransformation [19]: Compound metabolized
Bacterial Biotransformation [20]: Compound metabolized
Bacterial Biotransformation [21]: Compound NOT metabolized
Bacterial Biotransformation [22]: Compound NOT metabolized
Bacterial Biotransformation [23]: Compound metabolized
Bacterial Biotransformation [24]: Compound metabolized
Bacterial Biotransformation [25]: Compound metabolized
